# Patent US20230150920A1, “SALTS AND SOLID FORMS OF 4-BROMO-2,5-DIMETHOXYPHENETHYLAMINE” (priority 2021, published 2023)
# “Also recorded” adds a separate entry of the source.
# What was measured:
# [1] = Water activity slurry experiments, 2C-B HCl Form A vs Form C; format: physicochemical; settings: slurry of Form A at ambient temperature
# Male Sprague-Dawley rats = test: Rat elevated zero-maze model of anxiety; format: in vivo
# Excerpt: The rat zero-maze model is a refined alternative to the plus-maze, the most widely used animal model of anxiety, and consists of an elevated annular platform, divided equally into four quadrants. Two opposite quadrants are enclosed by Perspex walls on both the inner and the outer edges of the platform, while the remaining two opposite quadrants are open being enclosed only by a Perspex “lip”. Animals will show a preference for the closed areas, and avoidance of the open sections is assumed to stem from a rodent's natural aversion to open, exposed spaces. A reduction in the amount of activity on the open areas is considered to reflect an increase in anxiety (shepherd 1994). The ethologically-based behavior rearing was also assessed as an index of anxiety with a decrease in rearing indicative of an […] effect [(a) File 1985, Boissier 1976; (b) File, S. E. (1985). What can be learned from the effects of benzodiazepines on exploratory behavior? Neuroscience & Biobehavioral Reviews, 9(1), 45-54. doi:10.1016/0149-7634(85)90031-4; (c) Boissier, J. R., P. Simon and P. Soubrie. New approaches to the study of anxiety and anxiolytic drugs in animals. […]
# Subjects were weighed and tail marked before being injected. After a specified pre-treatment time, subjects were placed in a closed quadrant and a 5-min test period were recorded on videotape for subsequent analysis. […] Animals are scored as being in the open area when all four paws were in an open quadrant and in the closed area only when all four paws have passed over the open-closed divide. […]
# 30 male Sprague-Dawley rats in treatment groups of 5, was intraperitoneally dosed with either Vehicle 1 (saline) or 2C-B at 1 of 4 dose levels (0.1, 1, 2 & 5 mg/kg) or chlordiazepoxide (6 mg/kg) in 5 mL/kg injection volumes. Thirty min later at T=0, rats were individually placed in a closed arm of the zero-maze and behavior was assessed by a “blind” observer using remote video monitoring over the subsequent 5 min. […]
# Data was analysed with Statistica software (Statsoft USA version 10.0). […]
# TNF-α = test: LPS-induced TNF-α release ex vivo in whole blood of dosed rats; parameters: species or system rat; settings: for TNF alpha levels, LPS low dose: LPS 1 μg/mL
# Excerpt: The bacterial endotoxin lipopolysaccharide (LPS) induces a strong inflammatory response from normal animal immune systems. This response is triggered when LPS is recognized by the innate immune system via the Toll Like Receptor (TLR4) particularly those located on monocytes and macrophages although they are also located on a wide variety of other cell types. Stimulation of the TLR4 receptor leads to recruitment and activation of IL-1R associated kinase 1 (IRAK-1) initiating a series of signalling events in immunoregulatory pathways such as activation of NF kappa B, p38 MAP Kinase, ERK and JNK and AP-1. These changes promote gene transcription and thereby potentiate secretion of pro inflammatory factors such as TNF alpha and other cytokines (Fang et al., 2004).
# Determination of the effects of novel agents against LPS-induced TNF alpha release ex vivo provides an assessment of whether the plasma level of compound achieved after administration to whole animal is capable of affecting the inflammatory response.
# Dexamethasone disodium phosphate salt was formulated in water to a concentration of 0.6 mg free base/mL to give a dose of 3 mg free base/kg when orally administered in a 5 mL/kg dosing volume. 2C-B hydrochloride was formulated in Vehicle 1 (saline) at concentrations of […]. This provided doses of 0.1 and 1 mg/kg respectively when injected ip in 5 mL/kg dosing volumes. Ex vivo formulation
# LPS were dissolved in saline to concentrations of 0.2 and 0.6 mg/mL. This will then be diluted 10 fold in saline to give concentrations of 0.02 and 0.06 mg/mL that will provide concentrations of 1 and 3 μg/mL when 15 uL is added to 285 of whole blood (20 fold dilution).
# Twenty four male SD rats (approximately 200 g), were group housed. Animals were maintained under a 12 h light/dark cycle, where temperature and humidity are controlled. Animals were allowed free access to food and water.
# Rats were allocated to treatment groups of 6 and habituated to the test room on the day prior to the study. On the test day, rats were dosed orally with either water or dexamethasone 3 mg/kg in 5 mL/kg dosing volumes. Thirty minutes later the animals were dosed intraperitoneally with either saline or 2C-B in 5 mL/kg dosing volumes. After a further 90 minutes terminal blood samples were collected by cardiac puncture under CO2. • Three aliquots, each of 285 μL from each animal's blood sample were pipetted into separate Eppendorf tubes. • Tubes were left for 10 min • Assay tubes will then be mixed gently before adding 15 μL of saline or LPS to give final concentrations of 1 and 3 μg/ml. • After a further gentle mixing, assay tubes were placed in an incubator at 37° C. for 24 h. • At the end of this time, the whole blood aliquots were spun down to plasma. The plasma were then removed and placed in duplicate 96 well plates on dry ice. Plates were stored at −20° C. until analyzed for TNF-α after 10-fold dilution.
# The TNF-alpha content of the collected rat plasmas samples were measured using a Rat TNF-alpha Quantikine ELISA Kit (cat no RTA00).
# A 1-way ANOVA was conducted across the vehicle and 3 treatment groups (0.1 mg/kg 2C-B IP, 1 mg/kg 2C-B IP, and 3 mg/kg dexamethasone PO) independently for 3 stimulation conditions (no stimulation [saline], 1 μg/mL LPS, and 3 μg/mL LPS). […] Each group was compared to the vehicle group and a p-value for treatment determined by Fishers Least Significant Difference (LSD) test, without statistical penalty for multiple comparisons. […]
# [2] = Dynamic vapor sorption/desorption (DVS), hygroscopicity; format: physicochemical
# Protocol: The active pharmaceutical ingredient (API), 4-bromo-2,5-dimethoxyphenethylamine hydrochloride, is characterized to evaluate its physical properties. The evaluation is performed by X-ray powder diffraction (XRPD), polarized light microscopy (PLM), differential scanning calorimetry (DSC), thermogravimetry (TG), dynamic vapor sorption/desorption (DVS), and/or solubility testing in organic solvents, water, and mixed solvent systems. XRPD data are used to assess crystallinity. PLM data are used to evaluate crystallinity and particle size/morphology. DSC data are used to evaluate melting point, thermal stability, and crystalline form conversion. TG data are used to evaluate if the API is a solvate or hydrate, and to evaluate thermal stability. DVS data are used to evaluate hygroscopicity of the API and if hydrates can be formed at high relative humidity.
# The form characterized in FIGS. 1 and 2 is designated as Form A herein. […] A sharp endotherm at 238° C. in the DSC thermogram is attributed to melting.
# [3] = Dynamic vapor sorption (DVS) with XRPD of the post-DVS sample; format: physicochemical
# Protocol: Dynamic Vapor Sorption (DVS) analysis was carried out using a TA Instruments Q5000 Dynamic Vapor Sorption analyzer. The instrument was calibrated with standard weights and a sodium bromide standard for humidity. Approximately 10-25 mg of sample was loaded into a metal-coated quartz pan for analysis. The sample was analyzed at 25° C. with a maximum equilibration time of one hour in 10% relative humidity (RH) steps from 5 to 95% RH (adsorption cycle) and from 95 to 5% RH (desorption cycle). The movement from one step to the next occurred either after satisfying the equilibrium criterion of 0.01% weight change or, if the equilibrium criterion was not met, after one hour. The percent weight change values were calculated using Microsoft Excel.
# (§1) The DVS analysis was carried out using a TA Instruments Q5000 Dynamic Vapor Sorption analyzer. 13.5 mg of sample was loaded into a metal-coated quartz pan for analysis. After equilibration to 5% relative humidity (RH), the sample was analyzed at 25° C. in 10% RH steps from 5 to 95% RH (adsorption cycle) and from 95 to 5% RH (desorption cycle). The movement from one step to the next occurred either after satisfying the equilibrium criterion of 0.01% weight change in 5 minutes or, if the equilibrium criterion was not met, after 90 minutes. The percent weight change values are calculated using Microsoft Excel®.
# as §1, with “DVS analyses were” for “DVS analysis was”, “analyzer. Approximately 7-11” for “analyzer. 13.5”, “equilibration at” for “equilibration to”, “values were” for “values are”
# as §1, with “analyzer. Approximately 2” for “analyzer. 13.5”, “equilibration at” for “equilibration to”, “values were” for “values are”
compound,measurement,setting,value
"COc1cc(CCN)c(OC)cc1Br.Cl [Form C, 4-bromo-2,5-dimethoxyphenethylamine HCl]",water activities at which the form was obtained or remained unchanged,[1]; HCl,≥ 0.6
"COc1cc(CCN)c(OC)cc1Br [2C-B, 4-bromo-2,5-dimethoxyphenethylamine]",frequency of rearing,"Male Sprague-Dawley rats; ip 1 mg/kg, 2 mg/kg, and 5 mg/kg doses",decreased the frequency of rearing as effectively as the benzodiazepine chlordiazepoxide
same,frequency of rearing,Male Sprague-Dawley rats; ip 5 mg/kg,greatest numerical effect
same,frequency of rearing,"Male Sprague-Dawley rats; ip 0.1, 1, 2 & 5 mg/kg, 30 min before 5-min test",significantly reduced the number of rears in a dose dependent manner; also recorded: as effective as the chlordiazepoxide control
same,"TNF alpha levels, LPS low dose",TNF-α; 0.1 mg/kg ip,no difference vs placebo
same,"TNF alpha levels, LPS low dose",TNF-α; 1 mg/kg ip,trended towards significance
same,"TNF alpha levels, high level of LPS","TNF-α; 1 mg/kg ip, LPS 3 μg/ml, 1-way ANOVA",significant decrease in TNF alpha levels
same,TNF alpha levels in the absence of LPS,"TNF-α; no stimulation (saline), 2C-B 0.1 and 1 mg/kg ip, dexamethasone 3 mg/kg po",no effect
same,amount of TNF alpha released in response to LPS,"TNF-α; pre-treatment in vivo ip, LPS 1 and 3 μg/mL",reduced the amount of TNF alpha released in response to LPS
"COc1cc(CCN)c(OC)cc1Br.Cl [Form A, 4-bromo-2,5-dimethoxyphenethylamine hydrochloride]",hygroscopicity based on DVS data,[2],slightly hygroscopic
same,Form change after moisture sorption/desorption (DVS),[2]; loses all the gained moisture,without form change
same,water activities at which the form was obtained or remained unchanged,[1]; hydrochloride,≤ 0.5
same,hygroscopicity based on DVS data,"[3]; 25° C., 5 to 95% RH",slightly hygroscopic
same,behaviour on desorption / form change by XRPD of post-DVS sample,[3]; desorption 95 to 5% RH,loses all the gained moisture without form change
